Assay results as given in ChEMBL document CHEMBL2069296, “A novel series of G-quadruplex ligands with selectivity for HIF-expressing osteosarcoma and renal cancer cell lines” (Bioorg Med Chem Lett, 2012).
The source made the active and inactive calls. The rule behind the calls is not given here.

Columns and labels:
[1] = test system: Nucleic Acid; assay: Binding affinity to HIF1alpha DNA by surface plasmon resonance assay; format: nucleic-acid assay
[2] = test system: Nucleic Acid; assay: Binding affinity to HIF2alpha DNA by surface plasmon resonance assay; format: nucleic-acid assay
[3] = test system: Nucleic Acid; assay: Binding affinity to 5'-GGGGCGGGCACGGGGCGGG-3' DNA by surface plasmon resonance; format: nucleic-acid assay
[4] = test system: Nucleic Acid; assay: Binding affinity to HIF1alpha DNA in by circular dichroism; format: nucleic-acid assay
[5] = test system: HOS; assay: Antiproliferative activity against human HOS cells after 96 hrs by SRB assay; format: functional, cell-based
[6] = test system: MG-63; assay: Antiproliferative activity against human MG63 cells after 96 hrs by SRB assay; format: functional, cell-based; conditions: MG-63, 96 h
[7] = test system: HOS-TE85; assay: Antiproliferative activity against human MNNG-HOS cells after 96 hrs by SRB assay; format: functional, cell-based; conditions: HOS-TE85, 96 h
[8] = test system: U2OS; assay: Antiproliferative activity against human U2OS cells after 96 hrs by SRB assay; format: functional, cell-based
[9] = test system: SAOS-2; assay: Antiproliferative activity against human Saos2 cells after 96 hrs by SRB assay; format: functional, cell-based; conditions: SAOS-2, 96 h
[10] = test system: OST; assay: Antiproliferative activity against human OST cells after 96 hrs by SRB assay; format: functional, cell-based
[11] = Antiproliferative activity against human TC71 cells after 96 hrs by SRB assay; format: functional, cell-based; conditions: TC-71, 96 h
[12] = Antiproliferative activity against human TC32 cells after 96 hrs by SRB assay; format: functional, cell-based; conditions: TC-32, 96 h
[13] = test system: MCF7; assay: Antiproliferative activity against human MCF7 cells after 96 hrs by SRB assay; format: functional, cell-based; conditions: MCF7, 96 h
[14] = test system: A549; assay: Antiproliferative activity against human A549 cells after 96 hrs by SRB assay; format: functional, cell-based; conditions: A549, 96 h
[15] = test system: MIA PaCa-2; assay: Antiproliferative activity against human MIAPaCa2 cells after 96 hrs by SRB assay; format: functional, cell-based; conditions: MIA PaCa-2, 96 h
[16] = test system: PANC-1; assay: Antiproliferative activity against human PANC1 cells after 96 hrs by SRB assay; format: functional, cell-based; conditions: PANC-1, 96 h
[17] = test system: HPAC; assay: Antiproliferative activity against human HPAC cells after 96 hrs by SRB assay; format: functional, cell-based
[18] = test system: PC-3; assay: Antiproliferative activity against human PC3 cells after 96 hrs by SRB assay; format: functional, cell-based; conditions: PC-3, 96 h
[19] = Antiproliferative activity against human 786-O cells after 96 hrs by SRB assay; format: functional, cell-based; conditions: 786-0, 96 h
[20] = test system: A498; assay: Antiproliferative activity against human A498 cells after 96 hrs by SRB assay; format: functional, cell-based; conditions: A498, 96 h
[21] = Antiproliferative activity against human RCC4 cells after 96 hrs by SRB assay; format: functional, cell-based; conditions: RCC4, 96 h
[22] = Antiproliferative activity against human RCC4/VHL cells after 96 hrs by SRB assay; format: functional, cell-based
[23] = Ratio of IC50 for human RCC4/VHL cells to IC50 for human RCC4 cells; format: functional
[24] = Ratio of cell viability in human RCC4/VHL cells to cell viability in human RCC4 cells in hypoxia condition; format: functional
[25] = molecular target: Hypoxia-inducible factor 1-alpha (Homo sapiens) (UniProt Q16665); assay: Inhibition of HIF1alpha in human U2OS cells in normaxia condition; format: cell-based
[26] = molecular target: Hypoxia-inducible factor 1-alpha (Homo sapiens) (UniProt Q16665); assay: Inhibition of HIF1alpha in human U2OS cells in hypoxia condition; format: cell-based
[27] = test system: U2OS; assay: Downregulation of HIF1alpha protein level in human U2OS cells at 5 fold IC50 concentration within 2 hrs by Western blot analysis; format: functional, cell-based
[28] = test system: U2OS; assay: Downregulation of HIF1alpha mRNA level in human U2OS cells at 5 fold IC50 concentration after 4 hrs by RT-PCR analysis relative to untreated control; format: functional
[29] = molecular target: T1, Hypoxia inducible factors; HIF-1-alpha, HIF-2-alpha (Homo sapiens) (UniProt Q16665+Q99814); assay: Inhibition of HIF1 transactivation in human U2OS cells after 4 hrs by luciferase reporter gene assay; format: cell-based
[30] = molecular target: T1, Hypoxia inducible factors; HIF-1-alpha, HIF-2-alpha (Homo sapiens); assay: Inhibition of HIF1 transactivation in human U2OS cells after 4 hrs by luciferase reporter gene assay relative to untreated control; format: cell-based; conditions: concentration not given here
[31] = Antiproliferative activity against human TC135 cells after 96 hrs by SRB assay; format: functional, cell-based; conditions: TC135, 96 h
[32] = Therapeutic index, ratio of IC50 for human MG63 cells to IC50 for human WI38 cells; format: cell-based, WI-38; conditions: MG63 cells and WI38 cells, read-out: Ratio IC50
[33] = Therapeutic index, ratio of IC50 for human MNNG-HOS cells to IC50 for human WI38 cells; format: cell-based, HOS-TE85; conditions: MNNG-HOS cells and WI38 cells, read-out: Ratio IC50
[34] = Therapeutic index, ratio of IC50 for human U2OS cells to IC50 for human WI38 cells; format: cell-based; conditions: U2OS cells and WI38 cells, read-out: Ratio IC50
[35] = Therapeutic index, ratio of IC50 for human OST cells to IC50 for human WI38 cells; format: cell-based; conditions: OST cells and WI38 cells, read-out: Ratio IC50
[36] = Therapeutic index, ratio of IC50 for human TC135 cells to IC50 for human WI38 cells; format: cell-based; conditions: TC135 cells and WI38 cells, read-out: Ratio IC50
[37] = Therapeutic index, ratio of IC50 for human A549 cells to IC50 for human WI38 cells; format: cell-based; conditions: A549 cells and WI38 cells, read-out: Ratio IC50
[38] = Therapeutic index, ratio of IC50 for human MIAPaCa2 cells to IC50 for human WI38 cells; format: cell-based, MIA PaCa-2; conditions: MIAPaCa2 cells and WI38 cells, read-out: Ratio IC50
[39] = Therapeutic index, ratio of IC50 for human 786-O cells to IC50 for human WI38 cells; format: cell-based, WI-38; conditions: 786-O cells and WI38 cells, read-out: Ratio IC50
[40] = Therapeutic index, ratio of IC50 for human A498 cells to IC50 for human WI38 cells; format: cell-based; conditions: A498 cells and WI38 cells, read-out: Ratio IC50
[41] = test system: WI-38; assay: Cytotoxicity against human WI38 after 96 hrs by SRB assay; format: cell-based; conditions: WI-38, 96 h

Chain of Hypoxia-inducible factor 1-alpha (Homo sapiens) (Q16665 whole entry, looked up): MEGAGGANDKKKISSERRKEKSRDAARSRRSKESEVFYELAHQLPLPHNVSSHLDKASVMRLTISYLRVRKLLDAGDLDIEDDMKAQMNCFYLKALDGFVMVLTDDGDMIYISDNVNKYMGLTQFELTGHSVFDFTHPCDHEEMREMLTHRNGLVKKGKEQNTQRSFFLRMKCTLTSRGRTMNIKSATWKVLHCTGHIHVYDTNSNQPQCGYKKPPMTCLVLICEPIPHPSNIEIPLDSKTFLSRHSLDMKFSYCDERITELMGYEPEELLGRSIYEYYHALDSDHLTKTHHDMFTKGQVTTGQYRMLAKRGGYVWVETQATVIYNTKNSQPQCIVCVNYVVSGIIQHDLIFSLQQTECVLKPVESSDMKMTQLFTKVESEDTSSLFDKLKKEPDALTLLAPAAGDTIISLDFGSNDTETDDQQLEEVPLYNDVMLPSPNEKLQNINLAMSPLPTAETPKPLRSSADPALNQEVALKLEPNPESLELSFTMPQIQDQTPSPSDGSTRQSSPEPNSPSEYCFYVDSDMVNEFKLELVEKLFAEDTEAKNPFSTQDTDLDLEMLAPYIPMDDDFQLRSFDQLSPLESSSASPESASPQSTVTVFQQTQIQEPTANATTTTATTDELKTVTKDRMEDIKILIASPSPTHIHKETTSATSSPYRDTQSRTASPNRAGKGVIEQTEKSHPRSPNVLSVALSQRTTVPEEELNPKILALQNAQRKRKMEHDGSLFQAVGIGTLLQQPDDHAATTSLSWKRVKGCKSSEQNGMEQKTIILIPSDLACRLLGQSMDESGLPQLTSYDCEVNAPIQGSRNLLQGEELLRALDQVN

Q: Which K [1] does the source give for `CCN(CC)CC(=O)Nc1cccc(-n2cc(-c3ccc4ccc(-c5cn(-c6cccc(NC(=O)CN(CC)CC)c6)nn5)cc4c3)nn2)c1` here?
A: 0.29 ×10⁷ /M

Q: What about the K [2] of the same compound?
A: 0.27 ×10⁷ /M

Q: And the K [3]?
A: < 100000 M⁻¹

Q: What about the Activity [4] of the same compound?
A: Active

Q: And the IC50 [5]?
A: 2.4 µM

Q: And the IC50 [6]?
A: 7.9 µM

Q: What about the IC50 [7] of the same compound?
A: 3.2 µM

Q: What about the IC50 [8] of the same compound?
A: 5.5 µM

Q: What about the IC50 [9] of the same compound?
A: 2.6 µM

Q: And the IC50 [10]?
A: 2.6 µM

Q: What about the IC50 [11] of the same compound?
A: 7.8 µM

Q: And the IC50 [12]?
A: 0.9 µM

Q: What about the IC50 [13] of the same compound?
A: 63 µM

Q: What about the IC50 [14] of the same compound?
A: 60 µM

Q: What about the IC50 [15] of the same compound?
A: 16.8 µM

Q: What about the IC50 [16] of the same compound?
A: 31 µM

Q: And the IC50 [17]?
A: 7.3 µM

Q: What about the IC50 [18] of the same compound?
A: 8.05 µM

Q: And the IC50 [19]?
A: 2.3 µM

Q: What about the IC50 [20] of the same compound?
A: 2.5 µM

Q: What about the IC50 [21] of the same compound?
A: 1.3 µM

Q: And the IC50 [22]?
A: 2.6 µM

Q: And the “Ratio IC50” value [23]?
A: 2

Q: And the Ratio [24]?
A: 2.1

Q: What about the inhibition [25] of the same compound?
A: Dose-dependent effect

Q: What about the inhibition [26] of the same compound?
A: Dose-dependent effect

Q: What about the Activity [27] of the same compound?
A: Active

Q: What about the Activity [28] of the same compound?
A: 79.7%

Q: And the inhibition [29]?
A: Dose-dependent effect

Q: What about the inhibition [30] of the same compound?
A: 7%

Q: And the IC50 [31]?
A: 2.4 µM

Q: What about the selectivity ratio [32] of the same compound?
A: 40

Q: What about the selectivity ratio [33] of the same compound?
A: 40

Q: What about the selectivity ratio [34] of the same compound?
A: 40

Q: What about the selectivity ratio [35] of the same compound?
A: 40

Q: And the selectivity ratio [36]?
A: 40

Q: What about the selectivity ratio [37] of the same compound?
A: 40

Q: What about the selectivity ratio [38] of the same compound?
A: 40

Q: And the selectivity ratio [39]?
A: 40

Q: And the selectivity ratio [40]?
A: 40

Q: What about the IC50 [41] of the same compound?
A: 91 µM
